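Five compound concentrations were applied to cells in 96-well plates for 48 hours; endpoints were derived by simple linear interpolation of the resulting dose-response curve. TGI: concentration producing complete growth inhibition.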
Experiments:
Test in all cases: inhibition of tumour cell growth, NCI panel, 48 h
A549 NSCLC = tested on: A549 NSCLC
NCI-H226 lung = tested on: NCI-H226 lung
HOP-92 NSCLC = tested on: HOP-92 NSCLC
ACHN renal = tested on: ACHN renal
HT29 colon = tested on: HT29 colon
MOLT-4 leukemia = tested on: MOLT-4 leukemia
SF-295 CNS = tested on: SF-295 CNS
MDA-MB-435 = tested on: MDA-MB-435
T-47D breast = tested on: T-47D breast
HS 578T breast = tested on: HS 578T breast
M14 melanoma = tested on: M14 melanoma
OVCAR-5 ovarian = tested on: OVCAR-5 ovarian
TK-10 renal = tested on: TK-10 renal
U251 CNS = tested on: U251 CNS
MDA-MB-231 breast = tested on: MDA-MB-231 breast
NCI-H460 lung = tested on: NCI-H460 lung
UACC-62 melanoma = tested on: UACC-62 melanoma
SN12C renal = tested on: SN12C renal
HOP-62 NSCLC = tested on: HOP-62 NSCLC
HCT-15 colon = tested on: HCT-15 colon
OVCAR-8 ovarian = tested on: OVCAR-8 ovarian
NCI-H522 lung = tested on: NCI-H522 lung
OVCAR-3 ovarian = tested on: OVCAR-3 ovarian
SW-620 colon = tested on: SW-620 colon
SF-539 CNS = tested on: SF-539 CNS
A498 renal = tested on: A498 renal
SK-MEL-2 melanoma = tested on: SK-MEL-2 melanoma
PC-3 prostate = tested on: PC-3 prostate
K-562 leukemia = tested on: K-562 leukemia
HCC-2998 colon = tested on: HCC-2998 colon
DU-145 prostate = tested on: DU-145 prostate
CAKI-1 renal = tested on: CAKI-1 renal
MDA-N = tested on: MDA-N
IGROV1 ovarian = tested on: IGROV1 ovarian
EKVX NSCLC = tested on: EKVX NSCLC
MCF7 breast = tested on: MCF7 breast
LOX IMVI melanoma = tested on: LOX IMVI melanoma
SK-MEL-5 melanoma = tested on: SK-MEL-5 melanoma
UACC-257 melanoma = tested on: UACC-257 melanoma
SR leukemia = tested on: SR leukemia
HL-60(TB) leukemia = tested on: HL-60(TB) leukemia
SK-OV-3 ovarian = tested on: SK-OV-3 ovarian
NCI/ADR-RES ovarian = tested on: NCI/ADR-RES ovarian
786-0 renal = tested on: 786-0 renal
RPMI-8226 leukemia = tested on: RPMI-8226 leukemia
BT-549 breast = tested on: BT-549 breast
RXF 393 renal = tested on: RXF 393 renal
COLO 205 colon = tested on: COLO 205 colon
HCT-116 colon = tested on: HCT-116 colon
NCI-H23 lung = tested on: NCI-H23 lung
UO-31 renal = tested on: UO-31 renal
SK-MEL-28 melanoma = tested on: SK-MEL-28 melanoma
MALME-3M melanoma = tested on: MALME-3M melanoma
CCRF-CEM leukemia = tested on: CCRF-CEM leukemia
OVCAR-4 ovarian = tested on: OVCAR-4 ovarian
SF-268 CNS = tested on: SF-268 CNS
SNB-19 CNS = tested on: SNB-19 CNS
KM12 colon = tested on: KM12 colon
SNB-75 CNS = tested on: SNB-75 CNS

CC(C)(C)c1ccc(C(C)(C)C)c(N2C(=O)[C@@H]3[C@@H]4C=C[C@@H](C4)[C@]3(C)C2=O)c1
TGI (A549 NSCLC): > 100 µM
TGI (NCI-H226 lung): > 100 µM
TGI (HOP-92 NSCLC): 9.64 µM
TGI (ACHN renal): > 100 µM
TGI (HT29 colon): > 100 µM
TGI (MOLT-4 leukemia): 61 µM
TGI (SF-295 CNS): > 100 µM
TGI (MDA-MB-435): 32.4 µM
TGI (T-47D breast): 82.6 µM
TGI (HS 578T breast): 59.9 µM
TGI (M14 melanoma): 51.3 µM
TGI (OVCAR-5 ovarian): > 100 µM
TGI (TK-10 renal): > 100 µM
TGI (U251 CNS): 52.5 µM
TGI (MDA-MB-231 breast): > 100 µM
TGI (NCI-H460 lung): > 100 µM
TGI (UACC-62 melanoma): 46.7 µM
TGI (SN12C renal): 52.3 µM
TGI (HOP-62 NSCLC): > 100 µM
TGI (HCT-15 colon): 42.9 µM
TGI (OVCAR-8 ovarian): 33.4 µM
TGI (NCI-H522 lung): 47.4 µM
TGI (OVCAR-3 ovarian): 53 µM
TGI (SW-620 colon): 62.6 µM
TGI (SF-539 CNS): > 100 µM
TGI (A498 renal): 69.8 µM
TGI (SK-MEL-2 melanoma): 53.1 µM
TGI (PC-3 prostate): 72.6 µM
TGI (K-562 leukemia): > 100 µM
TGI (HCC-2998 colon): 29.1 µM
TGI (DU-145 prostate): 53.5 µM
TGI (CAKI-1 renal): > 100 µM
TGI (MDA-N): 31.9 µM
TGI (IGROV1 ovarian): 39.9 µM
TGI (EKVX NSCLC): > 100 µM
TGI (MCF7 breast): > 100 µM
TGI (LOX IMVI melanoma): 26.8 µM
TGI (SK-MEL-5 melanoma): > 100 µM
TGI (UACC-257 melanoma): 74.4 µM
TGI (SR leukemia): 39.9 µM
TGI (HL-60(TB) leukemia): 40.4 µM
TGI (SK-OV-3 ovarian): > 100 µM
TGI (NCI/ADR-RES ovarian): > 100 µM
TGI (786-0 renal): 40.2 µM
TGI (RPMI-8226 leukemia): 49.1 µM
TGI (BT-549 breast): 57.7 µM
TGI (RXF 393 renal): 32.2 µM
TGI (COLO 205 colon): > 100 µM
TGI (HCT-116 colon): 40.9 µM
TGI (NCI-H23 lung): > 100 µM
TGI (UO-31 renal): > 100 µM
TGI (SK-MEL-28 melanoma): > 100 µM
TGI (MALME-3M melanoma): 53 µM
TGI (CCRF-CEM leukemia): 32 µM
TGI (OVCAR-4 ovarian): 26.7 µM
TGI (SF-268 CNS): 74 µM
TGI (SNB-19 CNS): > 100 µM
TGI (KM12 colon): > 100 µM

Cc1[nH]c(=O)[nH]c(=S)c1C(=O)NC1C2CCCCC2NC2CCCCC21 (stereo unspecified)
TGI (NCI-H226 lung): 33.2 µM
TGI (HOP-92 NSCLC): 33.6 µM
TGI (HT29 colon): 48 µM
TGI (MOLT-4 leukemia): 43.9 µM
TGI (SF-295 CNS): 32.8 µM
TGI (MDA-MB-435): 20.7 µM
TGI (T-47D breast): 43.8 µM
TGI (HS 578T breast): 61.8 µM
TGI (M14 melanoma): 29.6 µM
TGI (OVCAR-5 ovarian): 34.1 µM
TGI (TK-10 renal): 30.6 µM
TGI (U251 CNS): 27.1 µM
TGI (MDA-MB-231 breast): 33.1 µM
TGI (NCI-H460 lung): 31.6 µM
TGI (UACC-62 melanoma): 16.3 µM
TGI (SN12C renal): 58 µM
TGI (HOP-62 NSCLC): 32.9 µM
TGI (HCT-15 colon): 25.9 µM
TGI (OVCAR-8 ovarian): 36.2 µM
TGI (OVCAR-3 ovarian): 29.5 µM
TGI (SW-620 colon): 40.2 µM
TGI (A498 renal): 41.2 µM
TGI (SK-MEL-2 melanoma): 36.6 µM
TGI (PC-3 prostate): 29.4 µM
TGI (K-562 leukemia): > 100 µM
TGI (HCC-2998 colon): 84.6 µM
TGI (DU-145 prostate): 26.6 µM
TGI (CAKI-1 renal): 33.7 µM
TGI (MDA-N): 34.9 µM
TGI (IGROV1 ovarian): 33.2 µM
TGI (MCF7 breast): 37.2 µM
TGI (LOX IMVI melanoma): 64 µM
TGI (SK-MEL-5 melanoma): 33.3 µM
TGI (UACC-257 melanoma): 33.5 µM
TGI (SR leukemia): > 100 µM
TGI (HL-60(TB) leukemia): > 100 µM
TGI (NCI/ADR-RES ovarian): 40.2 µM
TGI (RPMI-8226 leukemia): > 100 µM
TGI (BT-549 breast): 32.8 µM
TGI (RXF 393 renal): 27.6 µM
TGI (COLO 205 colon): 39.5 µM
TGI (HCT-116 colon): 31 µM
TGI (SNB-75 CNS): 32.3 µM
TGI (NCI-H23 lung): 29.8 µM
TGI (UO-31 renal): 26.7 µM
TGI (SK-MEL-28 melanoma): 23.8 µM
TGI (MALME-3M melanoma): 46.8 µM
TGI (CCRF-CEM leukemia): 36.2 µM
TGI (OVCAR-4 ovarian): 50.7 µM
TGI (SNB-19 CNS): 29.7 µM
TGI (KM12 colon): 34.4 µM

Cn1c(-c2ccccc2)cc(-c2ccsc2)c1-c1ccsc1
TGI (A549 NSCLC): > 100 µM
TGI (NCI-H226 lung): > 100 µM
TGI (HOP-92 NSCLC): > 100 µM
TGI (ACHN renal): > 100 µM
TGI (HT29 colon): > 100 µM
TGI (MOLT-4 leukemia): > 100 µM
TGI (SF-295 CNS): > 100 µM
TGI (MDA-MB-435): > 100 µM
TGI (T-47D breast): > 100 µM
TGI (HS 578T breast): > 100 µM
TGI (M14 melanoma): > 100 µM
TGI (OVCAR-5 ovarian): > 100 µM
TGI (TK-10 renal): > 100 µM
TGI (U251 CNS): > 100 µM
TGI (MDA-MB-231 breast): > 100 µM
TGI (NCI-H460 lung): > 100 µM
TGI (UACC-62 melanoma): > 100 µM
TGI (SN12C renal): > 100 µM
TGI (HOP-62 NSCLC): > 100 µM
TGI (HCT-15 colon): > 100 µM
TGI (OVCAR-8 ovarian): > 100 µM
TGI (OVCAR-3 ovarian): > 100 µM
TGI (SW-620 colon): > 100 µM
TGI (SF-539 CNS): > 100 µM
TGI (A498 renal): > 100 µM
TGI (SK-MEL-2 melanoma): > 100 µM
TGI (PC-3 prostate): > 100 µM
TGI (K-562 leukemia): > 100 µM
TGI (HCC-2998 colon): > 100 µM
TGI (DU-145 prostate): > 100 µM
TGI (CAKI-1 renal): > 100 µM
TGI (MDA-N): > 100 µM
TGI (IGROV1 ovarian): > 100 µM
TGI (EKVX NSCLC): > 100 µM
TGI (MCF7 breast): > 100 µM
TGI (LOX IMVI melanoma): > 100 µM
TGI (SK-MEL-5 melanoma): > 100 µM
TGI (UACC-257 melanoma): > 100 µM
TGI (SR leukemia): > 100 µM
TGI (HL-60(TB) leukemia): > 100 µM
TGI (SK-OV-3 ovarian): > 100 µM
TGI (NCI/ADR-RES ovarian): > 100 µM
TGI (786-0 renal): > 100 µM
TGI (RPMI-8226 leukemia): > 100 µM
TGI (BT-549 breast): > 100 µM
TGI (RXF 393 renal): > 100 µM
TGI (COLO 205 colon): > 100 µM
TGI (HCT-116 colon): > 100 µM
TGI (SNB-75 CNS): > 100 µM
TGI (NCI-H23 lung): > 100 µM
TGI (UO-31 renal): > 100 µM
TGI (SK-MEL-28 melanoma): > 100 µM
TGI (CCRF-CEM leukemia): > 100 µM
TGI (OVCAR-4 ovarian): > 100 µM
TGI (SF-268 CNS): > 100 µM
TGI (SNB-19 CNS): > 100 µM
TGI (KM12 colon): > 100 µM

From PubChem BioAssay (NCI)
